Source: ChEMBL document CHEMBL1201862, “PubChem BioAssay data set” (2004)
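Interpolation was linear, between the two tested concentrations surrounding the appropriate level; five concentrations were tested over 48 hours in 96-well plates. GI50 = concentration required for 50% inhibition of growth.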 The source made the active and inactive calls. Cut-off read from the data, not from the text of the source: active = GI50 up to about 1.1 µM and inactive = higher.

How the values were obtained:
Assay in all cases: NCI tumour cell line growth inhibition, 48 h
SK-OV-3 = test system: SK-OV-3
U-251 = test system: U-251
SNB-75 = test system: SNB-75
OVCAR-5 = test system: OVCAR-5
HL-60 = test system: HL-60
K562 = test system: K562
EKVX = test system: EKVX
SF-539 = test system: SF-539
SR = test system: SR
UACC-62 = test system: UACC-62
SF-295 = test system: SF-295
SW-620 = test system: SW-620
SN12C = test system: SN12C
SF-268 = test system: SF-268
SK-MEL-2 = test system: SK-MEL-2
786-0 = test system: 786-0
MOLT-4 = test system: MOLT-4

Measured: GI50

O=c1nc(NC2CCCCO2)ccn1CCO (stereo not drawn)
inactive: SK-OV-3 > 100 µM | U-251 > 100 µM | SNB-75 > 100 µM | OVCAR-5 > 100 µM | HL-60 > 100 µM | K562 > 100 µM | EKVX > 100 µM | SF-539 > 100 µM | SR > 100 µM | UACC-62 > 100 µM | SF-295 > 100 µM | SW-620 > 100 µM | SN12C > 100 µM | SF-268 > 100 µM | SK-MEL-2 > 100 µM | 786-0 > 100 µM

CCN(CC)CCC(=O)N1CCc2c([nH]c3ccccc23)C1c1cccnc1 (stereo not drawn)
inactive: SK-OV-3 > 100 µM | MOLT-4 > 100 µM | U-251 > 100 µM | SNB-75 > 100 µM | OVCAR-5 > 100 µM | HL-60 > 100 µM | K562 > 100 µM | EKVX > 100 µM | SF-539 > 100 µM | SR > 100 µM | UACC-62 > 100 µM | SF-295 > 100 µM | SW-620 > 100 µM | SN12C > 100 µM | SF-268 > 100 µM | 786-0 > 100 µM

CN(C)c1ccc(C2CC(=O)C(C#N)=C(c3ccccc3)NN2C)cc1 (stereo not drawn)
inactive: SK-OV-3 12 µM | MOLT-4 8.47 µM | U-251 15.5 µM | SNB-75 2.05 µM | OVCAR-5 > 100 µM | HL-60 3.13 µM | SR 14.1 µM | SF-295 4.2 µM | SW-620 3.97 µM | SN12C 13.6 µM | SF-268 17.2 µM | SK-MEL-2 6.05 µM | 786-0 8.73 µM

CCn1c(C)nn2c(=O)c3ccccc3nc2c1=O
inactive: SK-OV-3 > 100 µM | MOLT-4 > 100 µM | U-251 > 100 µM | SNB-75 > 100 µM | OVCAR-5 > 100 µM | HL-60 > 100 µM | K562 > 100 µM | EKVX > 100 µM | SF-539 > 100 µM | UACC-62 > 100 µM | SF-295 > 100 µM | SW-620 > 100 µM | SK-MEL-2 > 100 µM | 786-0 > 100 µM

N#Cc1ccccc1NC(=O)/C(=N\Nc1ccc([N+](=O)[O-])cc1)C1C(=O)NC(=O)NC1=O
inactive: SK-OV-3 > 100 µM | MOLT-4 > 100 µM | U-251 > 100 µM | SNB-75 > 100 µM | OVCAR-5 > 100 µM | HL-60 > 100 µM | K562 > 100 µM | EKVX > 100 µM | SF-539 > 100 µM | UACC-62 > 100 µM | SW-620 > 100 µM | SF-268 > 100 µM | SK-MEL-2 > 100 µM | 786-0 > 100 µM

C=C(CN(C)C)C(=O)c1ccccc1C
inactive: SK-OV-3 > 100 µM | MOLT-4 7.52 µM | U-251 > 100 µM | SNB-75 > 71.6 µM | OVCAR-5 > 100 µM | HL-60 5.52 µM | K562 15.7 µM | EKVX > 100 µM | SF-539 > 40.4 µM | SR 14.2 µM | UACC-62 28.2 µM | SF-295 > 100 µM | SW-620 16.1 µM | SN12C 46.9 µM | SF-268 77.1 µM | SK-MEL-2 > 100 µM | 786-0 16.9 µM

COc1ccc(/C=C(\C(C)=O)C(=O)Nc2ccccc2)cc1
inactive: SK-OV-3 > 100 µM | MOLT-4 > 100 µM | U-251 > 100 µM | OVCAR-5 > 100 µM | HL-60 > 100 µM | K562 > 100 µM | EKVX > 100 µM | SF-539 > 100 µM | SR > 100 µM | UACC-62 > 100 µM | SF-295 > 100 µM | SW-620 > 100 µM | SN12C > 100 µM | SF-268 > 100 µM | SK-MEL-2 > 100 µM | 786-0 > 100 µM

CC1=NN(c2ccccc2)C(=O)C1/N=N/c1ccc(Br)cc1C (stereo not drawn)
inactive: SK-OV-3 32.9 µM | MOLT-4 > 100 µM | U-251 38.3 µM | SNB-75 19.1 µM | OVCAR-5 > 100 µM | HL-60 > 100 µM | K562 > 100 µM | EKVX > 100 µM | SF-539 58.9 µM | UACC-62 > 100 µM | SF-295 72.8 µM | SW-620 > 100 µM | SN12C > 100 µM | SF-268 > 100 µM | SK-MEL-2 56.6 µM | 786-0 82.2 µM

CC(C)c1ccc(O)c(Cc2cc(C(C)C)cc(Cc3cc(C(C)C)ccc3O)c2O)c1
inactive: SK-OV-3 1.68 µM | MOLT-4 1.78 µM | U-251 1.69 µM | SNB-75 2.16 µM | OVCAR-5 1.75 µM | HL-60 2 µM | K562 2.23 µM | EKVX 2.65 µM | SR 1.88 µM | UACC-62 2.38 µM | SF-295 1.88 µM | SW-620 1.72 µM | SN12C 1.77 µM | SF-268 1.82 µM | SK-MEL-2 1.61 µM | 786-0 1.7 µM
